From PubChem BioAssay (NCI)
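1) Cells in 96-well plates. 2) Compound, 48 h, 5 concentrations. 3) Linear interpolation between surrounding doses. 4) Unreached endpoint = highest concentration. Abbreviation: GI50, concentration required for 50% inhibition of growth. TGI marks complete inhibition of growth.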

What was measured:
Assay in all cases: NCI anticancer screen, dose series, 48 h
[1] = tested on: T-47D breast
[2] = tested on: HCC-2998 colon
[3] = tested on: UO-31 renal
[4] = tested on: DU-145 prostate
[5] = tested on: 786-0 renal
[6] = tested on: IGROV1 ovarian
[7] = tested on: SW-620 colon
[8] = tested on: A549 NSCLC
[9] = tested on: UACC-62 melanoma
[10] = tested on: BT-549 breast
[11] = tested on: MALME-3M melanoma
[12] = tested on: OVCAR-4 ovarian
[13] = tested on: LOX IMVI melanoma
[14] = tested on: SK-MEL-2 melanoma
[15] = tested on: SF-295 CNS
[16] = tested on: HCT-116 colon
[17] = tested on: HT29 colon
[18] = tested on: CAKI-1 renal
[19] = tested on: PC-3 prostate
[20] = tested on: RXF 393 renal
[21] = tested on: MDA-MB-435
[22] = tested on: UACC-257 melanoma
[23] = tested on: SNB-75 CNS
[24] = tested on: OVCAR-8 ovarian
[25] = tested on: KM12 colon
[26] = tested on: MCF7 breast
[27] = tested on: OVCAR-5 ovarian
[28] = tested on: SK-MEL-5 melanoma
[29] = tested on: SK-OV-3 ovarian
[30] = tested on: HL-60(TB) leukemia
[31] = tested on: COLO 205 colon
[32] = tested on: M14 melanoma
[33] = tested on: NCI-H226 lung
[34] = tested on: NCI-H522 lung
[35] = tested on: SNB-19 CNS
[36] = tested on: K-562 leukemia
[37] = tested on: SN12C renal
[38] = tested on: MDA-MB-231 breast
[39] = tested on: SR leukemia
[40] = tested on: HOP-92 NSCLC
[41] = tested on: SK-MEL-28 melanoma
[42] = tested on: HCT-15 colon
[43] = tested on: U251 CNS
[44] = tested on: NCI/ADR-RES ovarian
[45] = tested on: MDA-N
[46] = tested on: CCRF-CEM leukemia
[47] = tested on: NCI-H23 lung
[48] = tested on: MOLT-4 leukemia
[49] = tested on: OVCAR-3 ovarian
[50] = tested on: NCI-H460 lung
[51] = tested on: SF-539 CNS
[52] = tested on: TK-10 renal
[53] = tested on: ACHN renal
[54] = tested on: EKVX NSCLC
[55] = tested on: HS 578T breast
[56] = tested on: HOP-62 NSCLC
[57] = tested on: SF-268 CNS
[58] = tested on: RPMI-8226 leukemia
[59] = tested on: A498 renal

Nc1c2ccccc2nc2c1ccc1ncccc12
TGI [1]: > 100 µM
TGI [2]: 39.1 µM
TGI [3]: 40.2 µM
TGI [4]: > 100 µM
TGI [5]: > 100 µM
TGI [6]: > 100 µM
TGI [7]: > 100 µM
TGI [8]: > 100 µM
TGI [9]: 37.8 µM
TGI [10]: > 100 µM
TGI [11]: 27 µM
TGI [12]: 63 µM
TGI [13]: 53.5 µM
TGI [14]: 42.1 µM
TGI [15]: > 100 µM
TGI [16]: > 100 µM
TGI [17]: > 100 µM
TGI [18]: 92.1 µM
TGI [19]: > 100 µM
TGI [20]: 98.4 µM
TGI [21]: > 100 µM
TGI [22]: > 100 µM
TGI [23]: 99.4 µM
TGI [24]: > 100 µM
TGI [25]: 52.6 µM
TGI [26]: 72.1 µM
TGI [27]: > 100 µM
TGI [28]: > 100 µM
TGI [29]: > 100 µM
TGI [30]: 20.4 µM
TGI [31]: > 100 µM
TGI [32]: 43 µM
TGI [33]: 43.9 µM
TGI [34]: 38.3 µM
TGI [35]: > 100 µM
TGI [36]: 88.6 µM
TGI [37]: > 100 µM
TGI [38]: 96.1 µM
TGI [39]: > 100 µM
TGI [40]: > 100 µM
TGI [41]: > 100 µM
TGI [42]: > 100 µM
TGI [43]: > 100 µM
TGI [44]: 89.1 µM
TGI [45]: 74.7 µM
TGI [46]: 39 µM
TGI [47]: 75.6 µM
TGI [48]: > 100 µM
TGI [49]: > 100 µM
TGI [50]: 47.4 µM
TGI [51]: 49.9 µM
TGI [52]: > 100 µM
TGI [53]: 41 µM
TGI [54]: > 100 µM

CC(=O)OC(C)c1cc2c(s1)C(=O)c1sccc1C2=O (stereo unspecified)
TGI [1]: 6.2 µM
TGI [2]: 3.54 µM
TGI [3]: 3.28 µM
TGI [4]: 0.56 µM
TGI [6]: 4.19 µM
TGI [7]: > 100 µM
TGI [8]: 5.29 µM
GI50 [9]: 1.38 µM
TGI [9]: 3.05 µM
TGI [10]: 1.68 µM
TGI [11]: 0.407 µM
TGI [12]: 3.5 µM
TGI [13]: > 100 µM
TGI [14]: 2.41 µM
TGI [15]: 2.56 µM
TGI [16]: 2.48 µM
TGI [55]: 7.36 µM
TGI [17]: 6.18 µM
TGI [56]: 2.65 µM
TGI [18]: 8.23 µM
TGI [19]: 14.2 µM
TGI [20]: 3.27 µM
TGI [22]: 0.441 µM
TGI [23]: 2.63 µM
TGI [24]: 4.66 µM
TGI [25]: 3.36 µM
TGI [57]: 4.09 µM
TGI [26]: 3.9 µM
TGI [27]: 3.3 µM
TGI [28]: 0.32 µM
TGI [29]: 9.73 µM
TGI [30]: > 100 µM
TGI [58]: 4.78 µM
TGI [31]: 3.59 µM
TGI [32]: 0.389 µM
TGI [33]: 3.94 µM
TGI [34]: 3.34 µM
TGI [35]: 2.82 µM
TGI [36]: > 100 µM
TGI [59]: 4.59 µM
TGI [37]: 2.26 µM
TGI [38]: 16.8 µM
TGI [39]: > 100 µM
TGI [40]: 16.7 µM
TGI [41]: 3.64 µM
TGI [42]: 2.38 µM
TGI [43]: 4.4 µM
TGI [44]: 5.08 µM
TGI [45]: 0.0338 µM
TGI [46]: > 100 µM
TGI [47]: 0.546 µM
TGI [48]: > 23.6 µM
TGI [49]: 8.71 µM
TGI [50]: 2.36 µM
TGI [51]: 0.689 µM
TGI [52]: 3.86 µM
TGI [54]: 3.7 µM
